This is an account of results in ChEMBL document CHEMBL1148865, “A long-acting selective neuropeptide Y2 receptor PEGylated peptide agonist reduces food intake in mice” (Bioorg Med Chem Lett, 2007).

The target of assay [1] is T1, Neuropeptide Y receptor type 2 (Homo sapiens, UniProt P49146).
T1 sequence (P49146 whole entry): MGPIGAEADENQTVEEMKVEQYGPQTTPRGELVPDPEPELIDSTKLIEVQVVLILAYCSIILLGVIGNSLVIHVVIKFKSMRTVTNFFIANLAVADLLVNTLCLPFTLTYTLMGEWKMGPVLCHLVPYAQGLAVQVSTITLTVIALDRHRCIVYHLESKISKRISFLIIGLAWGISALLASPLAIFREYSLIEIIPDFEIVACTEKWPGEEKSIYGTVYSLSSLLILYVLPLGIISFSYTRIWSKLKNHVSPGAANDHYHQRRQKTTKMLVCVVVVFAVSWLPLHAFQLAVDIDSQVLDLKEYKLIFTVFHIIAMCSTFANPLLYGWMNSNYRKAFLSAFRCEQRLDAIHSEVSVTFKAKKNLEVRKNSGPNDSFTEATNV
In words: Agonist activity at human NPY2 receptor in KAN-TS cells by [35S]GTP-gamma-S binding assay. It is filed as functional, cell-based. For orientation: GTPγS is a poorly hydrolysed GTP analogue; its binding reports G protein activation.

The target of assay [2] is T2, Neuropeptide Y receptor type 2 (Homo sapiens) (UniProt P49146).
T2 sequence (whole entry): T1 sequence (P49146 whole entry)
In words: Agonist activity at human NPY2 receptor in KAN-TS cells at 1 uM by [35S]GTP-gamma-S binding assay. It counts as functional, cell-based.

Assay [3] addresses T1, Neuropeptide Y receptor type 2. In words: Displacement of [125I]PYY from human NPY2 receptor in KAN-TS cells by SPA assay. It is filed as cell-based. A general note: Displacement assays read how much labelled ligand stays bound in the presence of the test substance.
The target in assay [4] is T3, Neuropeptide Y receptor type 1 (Homo sapiens, UniProt P25929).
T3 sequence (P25929 whole entry): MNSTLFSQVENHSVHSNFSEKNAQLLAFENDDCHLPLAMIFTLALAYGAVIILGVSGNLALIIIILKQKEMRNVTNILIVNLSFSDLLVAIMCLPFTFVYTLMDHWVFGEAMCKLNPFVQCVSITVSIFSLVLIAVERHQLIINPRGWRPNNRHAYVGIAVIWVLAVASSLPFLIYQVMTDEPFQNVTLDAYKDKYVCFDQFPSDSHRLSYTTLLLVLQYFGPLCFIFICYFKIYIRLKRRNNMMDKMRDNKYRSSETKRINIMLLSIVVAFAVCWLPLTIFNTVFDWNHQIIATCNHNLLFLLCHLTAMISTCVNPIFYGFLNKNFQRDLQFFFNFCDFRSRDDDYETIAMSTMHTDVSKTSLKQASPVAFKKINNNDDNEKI
In words: Displacement of [125I]PYY from human NPY1 receptor in SK-N-MC cells. It counts as cell-based.

Assay [5] concerns the target T4, Neuropeptide Y receptor type 5 (Homo sapiens, UniProt Q15761).
T4 sequence (Q15761 whole entry): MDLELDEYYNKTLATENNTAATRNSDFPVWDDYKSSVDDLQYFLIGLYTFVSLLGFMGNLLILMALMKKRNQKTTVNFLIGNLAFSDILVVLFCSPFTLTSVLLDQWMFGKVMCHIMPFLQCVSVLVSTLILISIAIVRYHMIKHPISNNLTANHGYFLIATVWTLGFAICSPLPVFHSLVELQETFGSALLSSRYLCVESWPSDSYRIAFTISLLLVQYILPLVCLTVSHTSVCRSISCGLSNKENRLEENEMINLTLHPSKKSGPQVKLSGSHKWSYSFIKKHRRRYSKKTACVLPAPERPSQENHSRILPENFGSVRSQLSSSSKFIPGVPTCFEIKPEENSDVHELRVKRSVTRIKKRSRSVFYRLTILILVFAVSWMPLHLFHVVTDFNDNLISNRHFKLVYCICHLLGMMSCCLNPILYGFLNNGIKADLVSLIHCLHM
In words: Displacement of [125I]PYY from human NPY5 receptor in HEK293 cells. It is filed as cell-based.

A further assay concerns Mus musculus. In words: Reduction of food intake in C57BL/6 mouse at 10 mg/kg, sc after 1 to 24 hrs. Details: scale not given: the % may be the effect or the level left. It counts as functional. The following applies: route subcutaneous.

The term EC50 denotes the concentration giving half of the maximal effect. Broadly, the Ki is the equilibrium dissociation constant of an inhibitor or competing ligand from its target. As to Ac-LRHYLNLLTRQRYC-NH2, the 50% effective concentration (EC50) in assay [1] was found to be 160 nM. This substance showed an E/Emax in assay [2] of 81%. The inhibition constant Ki in assay [3] was 200 nM; in assay [4], > 1000 nM; in assay [5] it was > 1000 nM.
In assay [1], Ac-LRHYLNLLTRQRY-NH2 displayed an EC50 of 6 nM. The same substance showed an E/Emax in assay [2] of 100%. Also, the inhibition constant Ki in assay [3] is 5 nM; in assay [4] it was 210 nM; in assay [5] it was > 1000 nM. This substance came in with an Activity with Mus musculus of 6%.
Take Ac-CLRHYLNLLTRQRY-NH2: in assay [1], the response was half-maximal at 33 nM (EC50). In assay [2], this substance gave an E/Emax of 94%. For the same substance, the inhibition constant (Ki) in assay [3] was 8.2 nM; in assay [4], > 1000 nM; in assay [5], > 1000 nM.
